{
  "source": "patent US10183155B2",
  "about": "“Implantable devices and methods for evaluation of active agents” (Kibur Medical, Inc., priority 2011, dated 2019)",
  "key": {"[1]": {"test_system": "PC3 tumors", "test": "Implantable device assay: apoptosis (cleaved caspase 3) after device delivery in PC3 tumors", "type": "in vivo, mice", "conditions": "for apoptotic index (AI): device-delivery, 24 hours post implantation", "method": "(§1) Doxorubicin was loaded into a microwell in the implantable device. The device was implanted into tumor tissue. This was repeated for three different murine human cell tumor models (BT474, PC3, A375). After implantation for 20 hours, the device and surrounding tissue was removed, and embedded in acrylic for cross-sectioning and histopathological analysis.\n(§2) Fluorescent imaging techniques were used on sample cross-sections to determine the doxorubicin concentration and diffusion profile within the tissue surrounding the device. Standard histopathological techniques, such as but not limited to, immunochemical techniques, can be used to measure a desired characteristic within the surrounding tissue to determine effectiveness of a compound. In this instance, cleaved caspase 3 antibodies were used to detect cells undergoing apoptosis.\n(§3) Murine A375, BT474, or PC3 tumor models were used to determine whether the device measurement of local microdose response is a satisfactory predictor of a systemic response in different tumor models. Doxorubicin was placed within the microwells of implantable devices. The devices were implanted into A375, BT474, or PC3 tumors on mice. Apoptosis, as measured by cleaved caspase 3 expression, was used to evaluate drug efficacy at 24 hours post implantation or systemic dosing.\nThe implantable device assay was tested in murine tumor models (A375 and PC3) for its ability to predict the response of tumors to several other cytotoxic and targeted anti-cancer agents. Vemurafenib is an enzyme inhibitor that specifically targets the BRAF V600E mutation. A375 tumors have this mutation. […] Response to vemurafenib was measured by intratumor apoptotic response using the implantable device assay.\n(§4) Sunitinib was loaded into microwells in the implantable device that were preloaded with doxorubicin. The device was then implanted into PC3 tumors. The device and surrounding tissue was removed 24 hours later and apoptosis was evaluated by cleaved caspase 3 expression using standard immunohistochemical assays."}, "[2]": {"test_system": "BT474 tumors", "test": "Implantable device assay: apoptosis (cleaved caspase 3) after device delivery in BT474 tumors", "type": "in vivo, mice", "conditions": "for increase of apoptosis by addition to microwells preloaded with doxorubicin: 24 hours, vs doxorubicin alone; for apoptotic index (AI): device-delivery, 24 hours post implantation", "method": "as §1, §2, §3\nas §4, with “Sunitinib or lapatinib” for “Sunitinib”, “BT474” for “PC3”"}, "[3]": {"test": "Doxorubicin concentration in tumor tissue surrounding the implanted device (fluorescent imaging)", "type": "in vivo, mice", "conditions": "mouse, pure doxorubicin in microwell, 20 hours post implantation", "from_the_text": "as §2\nVarying percentages (1% and 5% by weight) of doxorubicin was dissolved in PEG having a molecular weight of 1000 or 1450. Pure powder doxorubicin and the PEG-doxorubicin formulations were loaded into microwells in the device. The device was implanted into tumors. After 20 hours, the device and surrounding tissue was removed and analyzed for doxorubicin concentration and cleaved caspase 3 expression, as previously described.\nMicrowells were loaded with pure doxorubicin and the device was implanted into tumor tissue. The device and surrounding tissue was removed at varying times post-implantation. The concentration of doxorubicin in the surrounding tissue was evaluated using immunohistochemical techniques and fluorescent imaging.\n(§5) Doxorubicin was administered systemically at 8 mg/kg to BT474 bearing mice. Intratumor concentration of doxorubicin was analyzed by standard immunohistochemical and fluorescence techniques previously described and standard in the art. Doxorubicin was loaded into microwells in the device. The device was implanted in a BT474 tumor as in Example 7. After 20 hours, the device and surrounding tissue was excised and doxorubicin concentration in the surrounding tumor tissue was analyzed."}, "[4]": {"test_system": "A375 tumors", "test": "Implantable device assay: apoptosis (cleaved caspase 3) after device delivery in A375 tumors", "type": "in vivo, mice", "method": "as §1, §2\nEfficacy of doxorubicin at different concentration gradients within the tissue was quantified using a two-step analysis. […]\nSecond, the effect of the drug on a measurable characteristic in each concentration region is determined. In this example, the amount of cells undergoing apoptosis, as determined by cleaved caspase 3 antibody binding, was evaluated in each doxorubicin concentration region. Efficacy of the doxorubicin released from the microwell is determined by antibody staining of tissue sections divided into regions corresponding to local compound exposure.\nVarying percentages (1% and 5% by weight) of doxorubicin was dissolved in PEG having a molecular weight of 1000 or 1450. […] After 20 hours, the device and surrounding tissue was removed and analyzed for doxorubicin concentration and cleaved caspase 3 expression, as previously described.\nas §3, with “Doxorubicin was placed within the microwells of implantable devices. The devices were implanted into A375, BT474, or PC3 tumors on mice.” left out, “dosing. […]” for “dosing.”"}, "[5]": {"test_system": "MDA-MB231 tumors", "test": "Implantable device assay: apoptosis (cleaved caspase 3) after device delivery in MDA-MB231 tumors", "type": "in vivo, mice", "method": "as §4, with “Lapatinib” for “Sunitinib”, “MDA-MB231” for “PC3”"}, "[6]": {"test_system": "Ki67", "test": "Ki67 protein expression by immunohistochemistry around device in BT474 tumor", "type": "in vivo", "conditions": "20 hour exposure, region closest to the microwell", "method": "(§6) Doxorubicin was loaded into microwells in the device and implanted within a BT474 tumor. After 20 hours, the device and surrounding tissue was removed. Protein expression of cleaved caspase 3 and Poly(ADP-ribose) polymerase (PARP) was evaluated by immunohistochemical analysis. These biomarkers are indicators of apoptosis. Protein expression of Ki67 and survivin was evaluated by immunohistochemical analysis. Ki67 is a biomarker for monitoring reduced cell proliferation rates. Survivin is a biomarker for monitoring reduced inhibition of apoptosis.\n(§7) Effect of 20 hour doxorubicin exposure on the expression of the biomarkers was determined as described in Example 4. However, here four concentration gradient regions of approximately 100 μm were determined and evaluated."}, "[7]": {"test_system": "survivin", "test": "Survivin protein expression by immunohistochemistry around device in BT474 tumor", "type": "in vivo", "conditions": "20 hour exposure, region closest to the microwell", "method": "as §6, §7"}, "[8]": {"test_system": "PC3 tumors", "test": "Local tumor apoptosis (cleaved caspase 3) after systemic dosing in PC3 tumors", "type": "in vivo, mice", "conditions": "systemic dosing 8 mg/kg, 24 hours", "method": "(§8) To compare the efficacy of device delivered doxorubicin to efficacy achieved with systemic delivery, mice bearing A375 or PC3 tumors were systemically administered an 8 mg/kg dose of doxorubicin. Apoptosis, as measured by cleaved caspase 3 expression, was used to evaluate drug efficacy at 24 hours post implantation or systemic dosing."}, "[9]": {"test": "Intratumor concentration of doxorubicin after systemic administration", "type": "in vivo", "conditions": "systemic 8 mg/kg, BT474 bearing mice", "method": "as §5"}, "[10]": {"test_system": "A375 tumors", "test": "Local tumor apoptosis (cleaved caspase 3) after systemic dosing in A375 tumors", "type": "in vivo, mice", "conditions": "systemic dosing 8 mg/kg, 24 hours", "method": "as §8"}, "[11]": {"conditions": "device-delivery, single agent, MDA-MB231 tumors"}},
  "note": "Several values for one entry are separate records, joined by “and”; a condition that tells them apart may be missing. Identical values can stand only once.",
  "data": [
    {"smiles": "CCN(CC)CCNC(=O)c1c(C)[nH]c(/C=C2\\C(=O)Nc3ccc(F)cc32)c1C", "note": "[sunitinib]", "values": [
      {"measurement": "increase of apoptosis by addition to microwells preloaded with doxorubicin", "setting": "[1]; 24 hours, vs doxorubicin alone", "value": 330, "unit": "%"},
      {"measurement": "increase of apoptosis by addition to microwells preloaded with doxorubicin", "setting": "[2]", "value": 66, "unit": "%"}
    ]},
    {"smiles": "CC[C@@]1(O)C(=O)OCc2c1cc1n(c2=O)Cc2cc3c(CN(C)C)c(O)ccc3nc2-1", "note": "[topotecan]", "values": [
      {"measurement": "apoptotic index (AI)", "setting": "[1]", "value": 6.3, "unit": "%"},
      {"measurement": "apoptotic index (AI)", "setting": "[2]", "value": 2.2, "unit": "%"}
    ]},
    {"smiles": "COc1cccc2c1C(=O)c1c(O)c3c(c(O)c1C2=O)C[C@@](O)(C(=O)CO)C[C@@H]3O[C@H]1C[C@H](N)[C@H](O)[C@H](C)O1", "note": "[doxorubicin]", "values": [
      {"measurement": "concentration at 20 h", "setting": "[3]; 0-130 μm from the microwell", "value": "15000 to 20000", "unit": "ng/g"},
      {"measurement": "concentration at 20 h", "setting": "[3]; approximately 130-200 μm from the microwell", "value": "8000 to 13000", "unit": "ng/g"},
      {"measurement": "concentration at 20 h", "setting": "[3]; approximately 200-300 μm from the microwell", "value": "3000 to 7000", "unit": "ng/g"},
      {"measurement": "number of cleaved caspase 3 positive cells as percent area of DAB staining", "setting": "[4]; 20 hours, A375 compared with BT474 and PC3, approximately 100-250 μm from the microwell", "value": "greatest number of cells to undergo apoptosis"},
      {"measurement": "apoptotic index (AI)", "setting": "[4]; device-delivery, A375 tumors, 24 hours post implantation", "value": 55, "unit": "%"},
      {"measurement": "apoptotic index (AI)", "setting": "[5]; [11]", "value": 7.4, "unit": "%"},
      {"measurement": "Ki67 expression", "setting": "[6]", "value": "undetectable levels"},
      {"measurement": "Survivin expression", "setting": "[7]", "value": "undetectable"},
      {"measurement": "apoptotic index (AI)", "setting": "[1]", "value": 6, "unit": "%"},
      {"measurement": "local tumor apoptosis, apoptotic index (AI)", "setting": "[8]", "value": 8.7, "unit": "%"},
      {"measurement": "intratumor doxorubicin concentration, areas of high concentration", "setting": "[9]", "value": "8 to 13", "unit": "mg/kg"},
      {"measurement": "intratumor doxorubicin concentration, areas of low concentration", "setting": "[9]", "value": "3 to 7", "unit": "mg/kg"},
      {"measurement": "local tumor apoptosis, apoptotic index (AI)", "setting": "[10]", "value": 34.9, "unit": "%"},
      {"measurement": "apoptotic index (AI)", "setting": "[2]", "value": 18, "unit": "%"}
    ]},
    {"smiles": "CCCS(=O)(=O)Nc1ccc(F)c(C(=O)c2c[nH]c3ncc(-c4ccc(Cl)cc4)cc23)c1F", "note": "[vemurafenib]", "values": [
      {"measurement": "intratumor apoptotic response greater in A375 model as compared to PC3 model", "setting": "[4]; device-delivery, A375 (BRAF V600E) vs PC3", "value": 250, "unit": "%"}
    ]},
    {"smiles": "Nc1ccn([C@@H]2O[C@H](CO)[C@@H](O)C2(F)F)c(=O)n1", "note": "[gemcitabine]", "values": [
      {"measurement": "apoptotic index (AI)", "setting": "[5]; [11]", "value": 21.8, "unit": "%"},
      {"measurement": "apoptotic index (AI)", "setting": "[1]", "value": 12.5, "unit": "%"},
      {"measurement": "apoptotic index (AI)", "setting": "[2]", "value": "2.0% and 2.6%"}
    ]},
    {"smiles": "CS(=O)(=O)CCNCc1ccc(-c2ccc3ncnc(Nc4ccc(OCc5cccc(F)c5)c(Cl)c4)c3c2)o1", "note": "[lapatinib]", "values": [
      {"measurement": "elevation of apoptotic response by addition to doxorubicin in the microwells", "setting": "[5]; MDA-MB-231 tumors, 24 hours, vs doxorubicin alone", "value": 140, "unit": "%"},
      {"measurement": "apoptotic index (AI)", "setting": "[5]; lapatinib added to doxorubicin in the microwells, MDA-MB-231 tumors, 24 hours", "value": 17.5, "unit": "%"},
      {"measurement": "increase of apoptosis by addition to microwells preloaded with doxorubicin", "setting": "[2]", "value": 355, "unit": "%"}
    ]}
  ]
}
